The subject of the experiment is BDF1 mice, L1210 6-MP/6-TG resistant leukemia ip, survival T/C. Put plainly: NCI In Vivo Anticancer Drug Screen. Data for tumor model L1210 Leukemia resistant to 6-MP and 6-Thioguanine; NSC 755, NSC 752 (intraperitoneal) in B6D2F1 (BDF1) mice. To be noted: endpoint: mean survival time, higher = longer survival. The procedure:
The antitumor activity of compounds was measured in mice bearing transplantable tumors. Survival or tumor size were measured and the results are expressed as the measurement made in the treated group (T) divided by the measurement made in the vehicle treated control group (C). The tumor model used in this assay is L1210 Leukemia resistant to 6-MP and 6-Thioguanine; NSC 755, NSC 752 (intraperitoneal) in B6D2F1 (BDF1) mice

Where [1] appears, read: dose: 250.0 mg/kg/injection, schedule: Q01DX Z (ip), vehicle: carboxymethylcellulose (CMC).
[2] abbreviates: dose: 125.0 mg/kg/injection, schedule: Q01DX Z (ip), vehicle: saline.
Where [3] appears, read: dose: 250.0 mg/kg/injection, schedule: Q01DX Z (ip), vehicle: saline.
The mark [4] stands for this setting: dose: 62.5 mg/kg/injection, schedule: Q01DX Z (ip), vehicle: saline.
The mark [5] stands for this setting: dose: 50.0 mg/kg/injection, schedule: Q01DX009 (ip), vehicle: saline.

This note sets out measurements from PubChem BioAssay AID308 (DTP/NCI, 2004).

Structures are written as SMILES. Values joined by “and” are separate entries in the source; they are usually repeats but may differ in a detail not shown here. Identical values can stand only once. Inconclusive results and toxic doses are left out.

Take `O=C(Nc1ccc(C2=NCCN2)cc1)c1ccc(C(=O)Nc2ccc(C3=NCCN3)cc2)c([N+](=O)[O-])c1`: the T/C by setting is: (dose: 0.5 mg/kg/injection, schedule: Q01DX Z (ip), vehicle: methylcellulose (MC)) 98 % of control; (dose: 1.0 mg/kg/injection, schedule: Q01DX Z (ip), vehicle: methylcellulose (MC)) 93 % of control; (dose: 2.0 mg/kg/injection, schedule: Q01DX Z (ip), vehicle: carboxymethylcellulose (CMC)) 181 % of control; (dose: 2.0 mg/kg/injection, schedule: Q01DX Z (ip), vehicle: methylcellulose (MC)) 112 % of control; (dose: 4.0 mg/kg/injection, schedule: Q01DX Z (ip), vehicle: carboxymethylcellulose (CMC)) 233 % of control; (dose: 6.0 mg/kg/injection, schedule: Q01DX Z (ip), vehicle: carboxymethylcellulose (CMC)) 186 % of control. Besides, the T/C is 224 % of control (dose: 6.0 mg/kg/injection, schedule: Q01DX Z (ip), vehicle: methylcellulose (MC)); 124 % of control and 232 % of control (dose: 8.0 mg/kg/injection, schedule: Q01DX Z (ip), vehicle: carboxymethylcellulose (CMC)); 173 % of control (dose: 12.0 mg/kg/injection, schedule: Q01DX Z (ip), vehicle: carboxymethylcellulose (CMC)); 107 % of control (dose: 27.0 mg/kg/injection, schedule: Q01DX Z (ip), vehicle: carboxymethylcellulose (CMC)); 224 % of control (dose: 27.0 mg/kg/injection, schedule: Q02DX010 (ip), vehicle: saline); 111 % of control (dose: 60.0 mg/kg/injection, schedule: Q02DX010 (ip), vehicle: saline).

Consider `CC[C@]1(O)C[C@H]2CN(CCc3c([nH]c4ccccc34)[C@@](C(=O)OC)(c3cc4c(cc3OC)N(C=O)[C@H]3[C@@](O)(C(=O)OC)[C@H](OC(C)=O)[C@]5(CC)C=CCN6CC[C@]43[C@@H]65)C2)C1`, for which the T/C (dose: 0.09 mg/kg/injection, schedule: Q01DX015 (ip), vehicle: carboxymethylcellulose (CMC)) was 91 % of control and 110 % of control; the T/C (dose: 0.13 mg/kg/injection, schedule: Q01DX015 (ip), vehicle: carboxymethylcellulose (CMC)) was 114 % of control and 98 % of control; the T/C (dose: 0.2 mg/kg/injection, schedule: Q01DX015 (ip), vehicle: carboxymethylcellulose (CMC)) is 94 % of control and 106 % of control; the T/C (dose: 0.3 mg/kg/injection, schedule: Q01DX015 (ip), vehicle: carboxymethylcellulose (CMC)) was 90 % of control and 92 % of control; the T/C (dose: 0.45 mg/kg/injection, schedule: Q01DX015 (ip), vehicle: carboxymethylcellulose (CMC)) was 93 % of control.

Consider `Cn1cnc2c(SCc3ccccc3)ncnc21`, for which the T/C (dose: 12.5 mg/kg/injection, schedule: Q01DX Z (ip), vehicle: carboxymethylcellulose (CMC)) is 100 % of control; the T/C (dose: 25.0 mg/kg/injection, schedule: Q01DX Z (ip), vehicle: carboxymethylcellulose (CMC)) was 107 % of control; the T/C (dose: 50.0 mg/kg/injection, schedule: Q01DX Z (ip), vehicle: carboxymethylcellulose (CMC)) was 100 % of control; the T/C (dose: 93.0 mg/kg/injection, schedule: Q01DX Z (ip), vehicle: carboxymethylcellulose (CMC)) is 87 % of control; the T/C (dose: 100.0 mg/kg/injection, schedule: Q01DX Z (ip), vehicle: carboxymethylcellulose (CMC)) is 102 % of control; the T/C (dose: 187.0 mg/kg/injection, schedule: Q01DX Z (ip), vehicle: carboxymethylcellulose (CMC)) is 98 % of control. Also, under setting [1], the T/C was 92 % of control.

Take `CN(C)[C@@H]1C(=O)C(C(=O)NCc2nc3[nH]cnc(=S)c3[nH]2)=C(O)[C@@]2(O)C(=O)C3=C(O)c4c(O)cccc4[C@@](C)(O)[C@H]3C[C@@H]12`: the T/C is, setting by setting: (dose: 50.0 mg/kg/injection, schedule: Q01DX009 (ip), vehicle: carboxymethylcellulose (CMC)) 105 % of control; (dose: 100.0 mg/kg/injection, schedule: Q01DX009 (ip), vehicle: carboxymethylcellulose (CMC)) 104 % of control; (dose: 400.0 mg/kg/injection, schedule: Q01DX009 (ip), vehicle: carboxymethylcellulose (CMC)) 93 % of control.

Take `CC(C)Cn1cnc2c(=S)nc(N)[nH]c21`: the T/C reads like this: (dose: 9.0 mg/kg/injection, schedule: Q01DX015 (ip), vehicle: other) 107 % of control; (dose: 14.0 mg/kg/injection, schedule: Q01DX015 (ip), vehicle: other) 106 % of control; (dose: 21.0 mg/kg/injection, schedule: Q01DX015 (ip), vehicle: other) 102 % of control; (dose: 36.0 mg/kg/injection, schedule: Q01DX015 (ip), vehicle: other) 95 % of control.

With `CS(=O)(=O)OCC(O)C(O)COS(C)(=O)=O` (stereo not given), the T/C is 103 % of control (dose: 62.0 mg/kg/injection, schedule: Q01DX Z (ip), vehicle: carboxymethylcellulose (CMC)); 101 % of control (dose: 125.0 mg/kg/injection, schedule: Q01DX Z (ip), vehicle: carboxymethylcellulose (CMC)); 122 % of control under setting [1].

As for `Nc1ccc(OC(=O)Oc2ccc(N)cc2)cc1`, the T/C runs as follows: (dose: 62.0 mg/kg/injection, schedule: Q01DX Z (ip), vehicle: saline) 95 % of control; under setting [2], 152 % of control; under setting [3], 103 % of control.

Take `CC(=O)N(C)C`: the T/C by setting is: (dose: 7.5 mg/kg/injection, schedule: Q01DX Z (ip), vehicle: saline) 115 % of control; (dose: 15.0 mg/kg/injection, schedule: Q01DX Z (ip), vehicle: saline) 110 % of control; (dose: 30.0 mg/kg/injection, schedule: Q01DX Z (ip), vehicle: saline) 107 % of control; under setting [4], 110 % of control; under setting [2], 114 % of control; under setting [3], 109 % of control. Further, the T/C (dose: 500.0 mg/kg/injection, schedule: Q01DX Z (ip), vehicle: saline) is 120 % of control.

In the case of `Cn1c(N)nc2nc[nH]c2c1=S`, the T/C runs as follows: (dose: 18.75 mg/kg/injection, schedule: Q01DX Z (ip), vehicle: carboxymethylcellulose (CMC)) 98 % of control; (dose: 37.5 mg/kg/injection, schedule: Q01DX Z (ip), vehicle: carboxymethylcellulose (CMC)) 109 % of control; (dose: 75.0 mg/kg/injection, schedule: Q01DX Z (ip), vehicle: carboxymethylcellulose (CMC)) 109 % of control.

With `CN(C)/N=N/c1nc[nH]c1C(N)=O`, the T/C (dose: 12.5 mg/kg/injection, schedule: Q01DX015 (ip), vehicle: carboxymethylcellulose (CMC)) was 104 % of control; the T/C (dose: 25.0 mg/kg/injection, schedule: Q01DX015 (ip), vehicle: carboxymethylcellulose (CMC)) is 107 % of control; the T/C (dose: 50.0 mg/kg/injection, schedule: Q01DX015 (ip), vehicle: carboxymethylcellulose (CMC)) was 112 % of control; the T/C (dose: 200.0 mg/kg/injection, schedule: Q01DX015 (ip), vehicle: carboxymethylcellulose (CMC)) was 115 % of control.

Regarding `CCCCNc1ncnc2c1cnn2C`, the T/C reads like this: (dose: 2.5 mg/kg/injection, schedule: Q01DX Z (ip), vehicle: saline) 105 % of control; (dose: 5.0 mg/kg/injection, schedule: Q01DX Z (ip), vehicle: saline) 105 % of control; (dose: 10.0 mg/kg/injection, schedule: Q01DX Z (ip), vehicle: saline) 105 % of control; (dose: 20.0 mg/kg/injection, schedule: Q01DX Z (ip), vehicle: saline) 104 % of control; (dose: 31.0 mg/kg/injection, schedule: Q01DX Z (ip), vehicle: saline) 119 % of control; under setting [4], 104 % of control. Also, the T/C under setting [2] is 95 % of control.

Turning to `CC/C(=C(/CC)c1ccc(O)cc1)c1ccc(O)cc1`, the T/C is, setting by setting: (dose: 37.5 mg/kg/injection, schedule: Q01DX Z (sc), vehicle: steriod suspending solution) 90 % of control; (dose: 50.0 mg/kg/injection, schedule: Q01DX Z (sc), vehicle: steriod suspending solution) 95 % of control; (dose: 75.0 mg/kg/injection, schedule: Q01DX Z (sc), vehicle: steriod suspending solution) 94 % of control; (dose: 100.0 mg/kg/injection, schedule: Q01DX Z (sc), vehicle: steriod suspending solution) 94 % of control.

As for `O=c1[nH]cnc2c1nnn2C1OC(CO)C(O)C1O` (stereo not given), the T/C by setting is: under setting [5], 111 % of control; (dose: 76.0 mg/kg/injection, schedule: Q01DX009 (ip), vehicle: saline) 118 % of control; (dose: 114.0 mg/kg/injection, schedule: Q01DX009 (ip), vehicle: saline) 156 % of control and 171 % of control; (dose: 256.0 mg/kg/injection, schedule: Q01DX009 (ip), vehicle: saline) 112 % of control.

As to `CN(C)[C@@H]1C(=O)C(C(=O)NCNc2nc3n[nH]nc3c(=O)[nH]2)=C(O)[C@@]2(O)C(=O)C3=C(O)c4c(O)cccc4[C@@](C)(O)[C@H]3C[C@@H]12`, the T/C runs as follows: under setting [5], 100 % of control; (dose: 100.0 mg/kg/injection, schedule: Q01DX009 (ip), vehicle: saline) 104 % of control; (dose: 200.0 mg/kg/injection, schedule: Q01DX009 (ip), vehicle: saline) 100 % of control; (dose: 400.0 mg/kg/injection, schedule: Q01DX009 (ip), vehicle: saline) 100 % of control.
